Experimental data taken from US10351548B2, “2-oxo-1,2-dihydropyridine-3-carboxamide compounds and their use as inhibitors of PDK1” (INTERNATIONAL SOCIETY FOR DRUG DEVELOPMENT S.R.L., priority 2015, dated 2019).
Like-named read-outs stand apart in the source and are kept apart here.

Tests used:
[1] = molecular target: PDK1 Direct kinase (Homo sapiens (Human), UniProt O15530); test: Kinase-specific FRET-based Z'-LYTE assay against PDK1 Direct kinase; format: biochemical
Method: The compounds of Formula (I) and (II) were tested in the biological test named Kinase-specific Z′-LYTE® assay (Invitrogen Corporation, Life Technologies).

[2] = system: GSCs isolated from U87MG cells; test: GSC proliferation, MTS assay; format: cell-based, human; settings: for IC50: Homo sapiens, U-87 MG, 168 h, seven days of treatment, MTS assay; for inhibition of GSC proliferation: starting from four days of treatment
Method: The U87MG cell line was obtained from the National Institute for Cancer Research of Genoa (Italy) and cultured in DMEM 10% FBS and 2 mM glutamine. To isolate GSCs, approximately 2.0×10^6 cells were suspended in 1 mL of a defined serum-free Neural Stem Cell (NSC) medium (Daniele, S., et al., Modulation of A1 and A2B adenosine receptor activity: a new strategy to sensitise glioblastoma stem cells to chemotherapy. Cell death & disease, 2014. 5(11): p. e1539). After 3-4 days of culture, the neurospheres were collected, suspended in NSC medium, dissociated into single cells, and plated for the assays. For the long-term treatment of cells, NSC or complete medium containing drugs was replaced every two to three days.
The human U87MG cells or GSCs were seeded at a density of 3×10^3 cells/well. After 24 h, the cells were treated from one to seven days with fresh growth medium containing different concentrations of SA16, SA23 or IB35. Following the treatment period, cell proliferation was determined using the MTS assay according to manufacturer's instruction. The absorbance of formazan at […] was measured in a colorimetric assay with an automated plate reader (Victor Wallac 2, Perkin Elmer). The results were calculated by subtracting the mean background from the values obtained from each evaluation and were expressed as the percentage of the control (untreated cells). Sigmoid dose-response curve was generated, from which the IC50 values were derived.
The inhibition of PDK1 has been reported as potentially effective therapeutic approach to reduce self-renewal and propagation of GSCs (Signore, M., et al., Combined PDK1 and CHK1 inhibition is required to kill glioblastoma stem-like cells in vitro and in vivo. Cell death & disease, 2014. 5(5): p. e1223). On this basis, the effects of SA16, SA23 and IB35 on GSCs, isolated from U87MG cells as previously reported, were evaluated (Daniele, S., et al., Modulation of A1 and A28 adenosine receptor activity: a new strategy to sensitise glioblastoma stem cells to chemotherapy. Cell death & disease, 2014. 5(11): p. e1539). U87MG-derived GSCs were incubated with the indicated concentrations of IB35, SA23 or SA16 for four days (FIG. 8) or seven days (FIG. 9). At the end of the treatment periods, cell proliferation was measured using the MTS assay. The data were expressed as a percentage with respect to that of untreated cells (control), which was set to 100%, and are the mean values±SEM of three independent experiments, each performed in duplicate. IC50 values after seven days of treatment were calculated from sigmoid dose-response curve (FIG. 9). The significance of the differences was determined with a one-way ANOVA with Bonferroni post-test (** p<0.01, *** p<0.001 vs. control).

[3] = system: AKT phosphorylation at Thr308 in U87MG cells; test: PDK1 activity in U87MG cells, (T308)AKT phosphorylation ELISA; format: cell-based, human; settings: for inhibition at 10 µM: Homo sapiens, U-87 MG, U87MG cells, read-out: peak of inhibition (percentage of PDK1 inhibition); for time of peak of inhibition of (T308)AKT phosphorylation / inhibition of AKT phosphorylation at Thr308: U87MG, 10 μM; for inhibition of AKT phosphorylation at Thr308: 0-120 min
Method: U87MG cells were cultured in 96-well microplates (5.000 cells/well), and treated for different times with 10 μM SA16, SA23 or IB35. At the end of the treatment period, the GSCs were centrifuged at 500×g for 3 minutes; cells were washed twice using fresh saline, and rapidly fixed with 4% (for adherent U87MG cells) or 8% (for suspension GSCs) formaldehyde to preserve activation of specific protein modification. The activity of PDK1 was assessed measuring the levels of phosphorylated AKT on Thr308, using a specific primary antibodies. The subsequent incubation with a secondary HRP-conjugated antibody and the developing solution allowed the colorimetric quantification of the levels of phosphorylated protein. The relative number of cells in each well was then determined using the Crystal-Violet assay. The results were calculated by subtracting the mean background value from the values obtained under each test condition: values were normalised to the number of cells in each well and were expressed as the percentages of the control (untreated cells) values.
280(4): p. 1107-1115). […] At the end of the treatment periods, the levels of (T308)AKT phosphorylation was evaluated using an ELISA kit, as described above. The data reported in FIG. 5 were expressed as the percentage of phosphorylated (T308)AKT relative to those of untreated cells (control), which were set at 100%, and were the mean values±SEM of three independent experiments performed in triplicate.

[4] = system: U87MG cells; test: Annexin V and 7-AAD staining in U87MG cells (apoptosis); format: cell-based, human; settings: 10 μM, 72 h
Method: Dual staining with Annexin V coniugated to fluorescein-isothiocyanate (FITC) and 7-amino-actinomysin (7-AAD) was performed using the commercially available kit (Muse Annexin V and Dead Cell Kit; Merck KGaA, Darmstadt, Germany). U87MG cells or GSCs were treated with DMSO (control), SA16, SA23 or IB35 for 72 h or seven days, respectively. At the end of the treatment periods, the percentages of living, apoptotic and dead cells were acquired and analysed by Muse™ Cell Analyzer as previously described (Daniele, S., et al., Combined inhibition of AKT/mTOR and MDM2 enhances Glioblastoma Multiforme cell apoptosis and differentiation of cancer stem cells. Sci. Rep., 2015. 5.).
It was then investigated whether the reduction in cell proliferation elicited by the PDK1 inhibitors could be associated with apoptosis. U87MG cells were treated for 72 h with DMSO (control), or 10 μM SA16, SA23 or IB35. At the end of the treatment period, the cells were collected, and the level of phosphatidylserine externalisation was evaluated using the Annexin V-staining protocol, as described above (FIG. 3). In FIG. 4 the data are expressed as the percentage of apoptotic cells (the data for the early-stage apoptotic cells shown in white, and the data for the late-stage apoptotic/necrotic cells shown in grey) versus the total number of cells. The data shown represented the mean±SEM of three different experiments. The significance of the differences was determined with a one-way ANOVA with Bonferroni post-test (*** p<0.001 vs. control).

[5] = read-out: IC50 (nM) PDK1 direct

Sequence of PDK1 Direct kinase (O15530 whole entry): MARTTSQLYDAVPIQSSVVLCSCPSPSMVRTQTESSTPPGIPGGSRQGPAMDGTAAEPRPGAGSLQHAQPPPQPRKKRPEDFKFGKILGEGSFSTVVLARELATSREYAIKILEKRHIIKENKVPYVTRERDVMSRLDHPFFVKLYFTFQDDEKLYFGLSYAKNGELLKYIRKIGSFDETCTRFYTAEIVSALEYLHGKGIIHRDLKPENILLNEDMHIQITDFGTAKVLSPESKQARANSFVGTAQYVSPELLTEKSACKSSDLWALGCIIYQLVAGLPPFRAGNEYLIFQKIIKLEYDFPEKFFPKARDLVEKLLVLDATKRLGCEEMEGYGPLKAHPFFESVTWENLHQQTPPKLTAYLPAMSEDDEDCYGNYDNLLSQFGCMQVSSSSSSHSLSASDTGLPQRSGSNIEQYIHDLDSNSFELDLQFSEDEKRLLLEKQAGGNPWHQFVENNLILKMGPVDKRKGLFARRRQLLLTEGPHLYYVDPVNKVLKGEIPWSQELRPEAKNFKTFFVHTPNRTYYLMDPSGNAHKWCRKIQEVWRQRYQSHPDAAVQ

Compound | inhibition at 10 µM [1] | IC50 [1, 5] | IC50 ([1]; read-out: PDK1 IC50) | IC50 [2] | inhibition of GSC proliferation [2] | inhibition at 10 µM [3] | time of peak of inhibition of (T308)AKT phosphorylation [3] | inhibition of AKT phosphorylation at Thr308 [3] | percentage of total apoptotic cells [4] | phosphatidylserine externalization (early and late apoptosis/death) [4]
O=C(CNC(=O)c1cccn(Cc2ccc(F)c(F)c2)c1=O)Nc1ccc2c(c1)/C(=C/c1cnc[nH]1)C(=O)N2 [IB35, (Z)—N-(2-((3-((1H-imidazol-5-yl)methylene)-2-oxoindolin-5-yl)amino)-2-oxoethyl)-1-(3,4-difluorobenzyl)-2-oxo-1,2-dihydro pyridine-3-carboxamide] | > 50% | 112 nM | 112 nM | 3.36 ± 0.4 nM | significant inhibition | 54 ± 5.2% | 120 min | significantly inhibited | 23.0±1.9% | significant phosphatidylserine externalization
O=C1Nc2ccc(NC(=O)[C@H](NC(=O)c3cccn(Cc4ccc(F)c(F)c4)c3=O)c3ccccc3)cc2/C1=C/c1ncc[nH]1 [SA23, (Z)—(R)—N-(2-((3-((1H-imidazol-2-yl)methylene)-2-oxoindolin-5-yl)amino)-2-oxo-1-phenylethyl)-1-(3,4-difluorobenzyl)-2-oxo-1,2-dihydropyridine-3-carboxamide] | > 50% | 1520 nM | 1520 nM | 0.3 ± 0.04 nM | significant inhibition | 48.1 ± 5% | 120 min | significantly inhibited |  | significant phosphatidylserine externalization
